# Data published in patent US20250114338A1, “TETRAHYDRO-PYRIDO[3,4-b]INDOLE ESTROGEN RECEPTOR MODULATORS AND USES THEREOF” (Genentech, Inc., priority 2014, published 2025).
# Tested on: ER-alpha MCF7
# Assay: ER-alpha MCF7 HCS EC50; stated as measured by in vitro cell proliferation assays of Examples 902 and 903
# Type: cell-based
# Details: Homo sapiens, MCF7, MCF7 cells; Table 1
# How it was run: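 MCF7 cells seeded 1000-2000 cells/well for 16 h, then treated with nine-point 1:2 DMSO dilution series in quadruplicate at 37 °C, 5% CO2 for 4 days. Viable cells quantified by CellTiter-Glo ATP luminescence; EC50 calculated. Controls: fulvestrant at final 100 nM, DMSO 0.2% v/v.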
row,EC50 [nM],SMILES
1,6.18,"C[C@@H]1Cc2c([nH]c3ccccc23)[C@@H](c2c(F)cc(OCCN3CC(CF)C3)cc2F)N1CC1CCC1 [Example 113, (1R,3R)-2-(cyclobutylmethyl)-1-(2,6-difluoro-4-(2-(3-(fluoromethyl)azetidin-1-yl)ethoxy)phenyl)-3-methyl-2,3,4,9-tetrahydro-1H-pyrido[3,4-b]indole]"

# Same assay, conditions: Homo sapiens, MCF7, MCF7 cells; Table 2
row,EC50 [nM],SMILES
1,0.021,"C[C@@H]1Cc2c([nH]c3cc(F)ccc23)[C@@H](c2c(F)cc(NC3CN(CCCF)C3)cc2F)N1CC(F)(F)CO [Example 425, 3-((1R,3R)-1-(2,6-difluoro-4-((1-(3-fluoropropyl)azetidin-3-yl)amino)phenyl)-7-fluoro-3-methyl-3,4-dihydro-1H-pyrido[3,4-b]indol-2(9H)-yl)-2,2-difluoropropan-1-ol]"
2,6.38,"C[C@H]1Cc2c([nH]c3cc(F)ccc23)[C@H](c2c(F)cc(NC3CN(CCCF)C3)cc2F)N1CC(F)(F)CO [Example 426, 3-((1S,3S)-1-(2,6-difluoro-4-((1-(3-fluoropropyl)azetidin-3-yl)amino)phenyl)-7-fluoro-3-methyl-3,4-dihydro-1H-pyrido[3,4-b]indol-2(9H)-yl)-2,2-difluoropropan-1-ol]"
3,0.278,"C[C@@H]1Cc2c([nH]c3ccccc23)[C@@H](c2c(F)cc(OC3CN(CC4(CF)CC4)C3)cc2F)N1CC(C)(C)F [Example 427, (1R,3R)-1-(2,6-difluoro-4-((1-((1-(fluoromethyl)cyclopropyl)methyl)azetidin-3-yl)oxy)phenyl)-2-(2-fluoro-2-methylpropyl)-3-methyl-2,3,4,9-tetrahydro-1H-pyrido[3,4-b]indole]"
4,0.7,"C[C@@H]1Cc2c([nH]c3cc(F)c(F)cc23)[C@@H](c2c(F)cc(OC3CN(CCCF)C3)cc2F)N1CC(C)(C)F [Example 428, (1R,3R)-1-(2,6-difluoro-4-(1-(3-fluoropropyl)azetidin-3-yloxy)phenyl)-6,7-difluoro-2-(2-fluoro-2-methylpropyl)-3-methyl-2,3,4,9-tetrahydro-1H-pyrido[3,4-b]indole]"
5,0.99,"C[C@@H]1Cc2c([nH]c3ccccc23)[C@@H](c2cnn(CC3CN(CCCF)C3)c2)N1CC(C)(C)F [Example 429, (1R,3R)-2-(2-fluoro-2-methylpropyl)-1-(1-((1-(3-fluoropropyl)azetidin-3-yl)methyl)-1H-pyrazol-4-yl)-3-methyl-2,3,4,9-tetrahydro-1H-pyrido[3,4-b]indole]"
6,0.065,"C[C@@H]1Cc2c([nH]c3ccccc23)[C@@H](c2c(F)cc(NC3CN(CCCF)C3)cc2F)N1CC(F)F [Example 430, N-[4-[(1R,3R)-2-(2,2-difluoroethyl)-3-methyl-1,3,4,9-tetrahydropyrido[3,4-b]indol-1-yl]-3,5-difluoro-phenyl]-1-(3-fluoropropyl)azetidin-3-amine]"
7,0.0943,"C[C@@H]1Cc2c([nH]c3ccc(F)cc23)[C@@H](c2c(F)cc(NC3CN(CCCF)C3)cc2F)N1C[C@@](C)(F)CO [Example 431, (R)-3-((1R,3R)-1-(2,6-difluoro-4-((1-(3-fluoropropyl)azetidin-3-yl)amino)phenyl)-6-fluoro-3-methyl-1,3,4,9-tetrahydro-2H-pyrido[3,4-b]indol-2-yl)-2-fluoro-2-methylpropan-1-ol]"
8,3.27,"C[C@H]1Cc2c([nH]c3ccc(F)cc23)[C@H](c2c(F)cc(NC3CN(CCCF)C3)cc2F)N1C[C@](C)(F)CO [Example 432, (S)-3-((1S,3S)-1-(2,6-difluoro-4-((1-(3-fluoropropyl)azetidin-3-yl)amino)phenyl)-6-fluoro-3-methyl-1,3,4,9-tetrahydro-2H-pyrido[3,4-b]indol-2-yl)-2-fluoro-2-methylpropan-1-ol]"
9,0.0209,"C[C@@H]1Cc2c([nH]c3ccc(F)cc23)[C@@H](c2c(F)cc(NC3CN(CCCF)C3)cc2F)N1C[C@](C)(F)CO [Example 433, (S)-3-((1R,3R)-1-(2,6-difluoro-4-((1-(3-fluoropropyl)azetidin-3-yl)amino)phenyl)-6-fluoro-3-methyl-1,3,4,9-tetrahydro-2H-pyrido[3,4-b]indol-2-yl)-2-fluoro-2-methylpropan-1-ol]"
10,0.706,"C[C@H]1Cc2c([nH]c3ccc(F)cc23)[C@@H](c2c(F)cc(NC3CN(CCCF)C3)cc2F)N1C[C@@](C)(F)CO [Example 434, (R)-3-((1R,3S)-1-(2,6-difluoro-4-((1-(3-fluoropropyl)azetidin-3-yl)amino)phenyl)-6-fluoro-3-methyl-1,3,4,9-tetrahydro-2H-pyrido[3,4-b]indol-2-yl)-2-fluoro-2-methylpropan-1-ol]"

# Same assay, conditions: Homo sapiens; MCF7 cells; Table 1
row,EC50 [nM],SMILES
1,0.11,"CC(C)C(=O)N1[C@H](c2c(F)cc(OCCN3CC(CF)C3)cc2F)c2[nH]c3ccccc3c2C[C@H]1C [Example 103, 1-((1R,3R)-1-(2,6-difluoro-4-(2-(3-(fluoromethyl)azetidin-1-yl)ethoxy)phenyl)-3-methyl-3,4-dihydro-1H-pyrido[3,4-b]indol-2(9H)-yl)-2-methylpropan-1-one]"

# Target: estrogen receptor alpha (ESR1) in MCF7 breast cancer cells (Homo sapiens (Human), UniProt P03372)
# Assay: Breast Cancer Cell ERa High Content Fluorescence Imaging Degradation Assay (Example 901)
# Type: cell-based
# Details: 4 hours, plateau of maximal effect, 0% = DMSO, 100% change = 5 nM Fulvestrant
# Method: Where more than one name is associated with a Formula I compound or intermediate, the chemical structure shall define the compound. […] Cell plates were incubated at 37° C., for 4 hours. Fixation and permeabilization were carried out using a Biotek EL406 plate washer and dispenser as follows. […] Well contents were aspirated and washed 3 times with 100 μL/well of PBS. […] Samples were incubated for 2 hours at room temperature. […] Samples were incubated for 2 hours at room temperature. […] Quantitative fluorescence imaging of ESR1 was carried out using a Cellomics Arrayscan V (Thermo). […] Channel 1 (DNA stain) was used to define the nuclear region (Circ). […] The “Robust Fit” method was used to define the inflexion point of curve (EC50) and the plateau of the maximal effect (Sinf).
# estrogen receptor alpha (ESR1) in MCF7 breast cancer cells, sequence (P03372 whole entry): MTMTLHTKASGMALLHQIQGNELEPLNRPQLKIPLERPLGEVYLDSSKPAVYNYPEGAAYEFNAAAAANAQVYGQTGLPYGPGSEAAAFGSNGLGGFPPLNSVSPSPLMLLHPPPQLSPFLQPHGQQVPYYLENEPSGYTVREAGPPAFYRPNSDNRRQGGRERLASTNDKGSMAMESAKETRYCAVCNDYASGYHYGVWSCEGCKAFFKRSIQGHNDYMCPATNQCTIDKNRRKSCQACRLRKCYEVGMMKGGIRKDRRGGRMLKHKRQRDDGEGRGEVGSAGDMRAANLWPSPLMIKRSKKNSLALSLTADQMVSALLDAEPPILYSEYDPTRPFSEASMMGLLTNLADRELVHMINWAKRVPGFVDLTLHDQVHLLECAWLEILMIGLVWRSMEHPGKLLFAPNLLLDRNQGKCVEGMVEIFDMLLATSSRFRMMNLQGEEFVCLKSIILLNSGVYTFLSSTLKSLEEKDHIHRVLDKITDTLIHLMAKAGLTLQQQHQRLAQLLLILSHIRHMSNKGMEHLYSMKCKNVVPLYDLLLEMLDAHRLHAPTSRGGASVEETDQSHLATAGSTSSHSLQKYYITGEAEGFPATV
row,ER-alpha MCF7 HCS Sinf (%),SMILES
1,−91,"CC(=O)N1[C@H](c2c(F)cc(OCCN3CC(CF)C3)cc2F)c2[nH]c3ccccc3c2C[C@H]1C [Example 121, 1-((1R,3R)-1-(2,6-difluoro-4-(2-(3-(fluoromethyl)azetidin-1-yl)ethoxy)phenyl)-3-methyl-3,4-dihydro-1H-pyrido[3,4-b]indol-2(9H)-yl)ethanone]"
2,−94.4,"C[C@@H]1Cc2c([nH]c3ccccc23)[C@@H](c2c(F)cc(OCCN3CC(CF)C3)cc2F)N1S(C)(=O)=O [Example 126, (1R,3R)-1-(2,6-difluoro-4-(2-(3-(fluoromethyl)azetidin-1-yl)ethoxy)phenyl)-3-methyl-2-(methylsulfonyl)-2,3,4,9-tetrahydro-1H-pyrido[3,4-b]indole]"

# Second part, the molecule before the results:
row,SMILES,ER-alpha MCF7 HCS Sinf (%)
1,"CC(C)C(=O)N1[C@H](c2c(F)cc(OCCN3CC(CF)C3)cc2F)c2[nH]c3ccccc3c2C[C@H]1C [Example 103, 1-((1R,3R)-1-(2,6-difluoro-4-(2-(3-(fluoromethyl)azetidin-1-yl)ethoxy)phenyl)-3-methyl-3,4-dihydro-1H-pyrido[3,4-b]indol-2(9H)-yl)-2-methylpropan-1-one]",−91.8
2,"C[C@@H]1Cc2c([nH]c3ccccc23)[C@@H](c2c(F)cc(OCCN3CC(CF)C3)cc2F)N1C(=O)C(C)(C)F [Example 104, 1-((1R,3R)-1-(2,6-difluoro-4-(2-(3-(fluoromethyl)azetidin-1-yl)ethoxy)phenyl)-3-methyl-3,4-dihydro-1H-pyrido[3,4-b]indol-2(9H)-yl)-2-fluoro-2-methylpropan-1-one]",−95.4
3,"C[C@@H]1Cc2c([nH]c3ccccc23)[C@@H](c2c(F)cc(OCCN3CC(C(F)F)C3)cc2F)N1CC(C)(C)F [Example 105, (1R,3R)-1-(4-(2-(3-(difluoromethyl)azetidin-1-yl)ethoxy)-2,6-difluorophenyl)-2-(2-fluoro-2-methylpropyl)-3-methyl-2,3,4,9-tetrahydro-1H-pyrido[3,4-b]indole]",−94
4,"C[C@@H]1Cc2c([nH]c3ccccc23)[C@@H](c2c(F)cc(OC3CN(CCCCl)C3)cc2F)N1CC(C)(C)F [Example 106, (1R,3R)-1-(4-((1-(3-chloropropyl)azetidin-3-yl)oxy)-2,6-difluorophenyl)-2-(2-fluoro-2-methylpropyl)-3-methyl-2,3,4,9-tetrahydro-1H-pyrido[3,4-b]indole]",−90.4
5,"CCCN1CC(Oc2cc(F)c([C@@H]3c4[nH]c5ccccc5c4C[C@@H](C)N3CC(C)(C)F)c(F)c2)C1 [Example 107, (1R,3R)-1-(2,6-difluoro-4-((1-propylazetidin-3-yl)oxy)phenyl)-2-(2-fluoro-2-methylpropyl)-3-methyl-2,3,4,9-tetrahydro-1H-pyrido[3,4-b]indole]",−97.6
6,"C[C@@H]1Cc2c([nH]c3ccccc23)[C@@H](c2c(F)cc(OC[C@H](C)N3CC[C@@H](CF)C3)cc2F)N1CC(C)(C)F [Example 108, (1R,3R)-1-(2,6-difluoro-4-((S)-2-((R)-3-(fluoromethyl)pyrrolidin-1-yl)propoxy)phenyl)-2-(2-fluoro-2-methylpropyl)-3-methyl-2,3,4,9-tetrahydro-1H-pyrido[3,4-b]indole]",−79.3
7,"C[C@@H]1Cc2c([nH]c3ccccc23)[C@@H](c2c(F)cc(OCCN3CC[C@@H](CF)C3)cc2F)N1CC(C)(C)F [Example 109, (1R,3R)-1-(2,6-difluoro-4-(2-((R)-3-(fluoromethyl)pyrrolidin-1-yl)ethoxy)phenyl)-2-(2-fluoro-2-methylpropyl)-3-methyl-2,3,4,9-tetrahydro-1H-pyrido[3,4-b]indole]",−86.5
8,"C[C@@H]1Cc2c([nH]c3ccccc23)[C@@H](c2c(F)cc(OCCN3CC(CF)C3)cc2F)N1CC1CCC1 [Example 113, (1R,3R)-2-(cyclobutylmethyl)-1-(2,6-difluoro-4-(2-(3-(fluoromethyl)azetidin-1-yl)ethoxy)phenyl)-3-methyl-2,3,4,9-tetrahydro-1H-pyrido[3,4-b]indole]",−94.8
9,"C[C@@H]1Cc2c([nH]c3ccccc23)[C@@H](c2c(F)cc(OCCN3CCCC3)cc2F)N1CC(C)(C)F [Example 117, (1R,3R)-1-(2,6-difluoro-4-(2-(pyrrolidin-1-yl)ethoxy)phenyl)-2-(2-fluoro-2-methylpropyl)-3-methyl-2,3,4,9-tetrahydro-1H-pyrido[3,4-b]indole]",−71.7
10,"C[C@@H]1Cc2c([nH]c3ccccc23)[C@@H](c2c(F)cc(OCCN3CCCCC3)cc2F)N1CC(C)(C)F [Example 118, (1R,3R)-1-(2,6-difluoro-4-(2-(piperidin-1-yl)ethoxy)phenyl)-2-(2-fluoro-2-methylpropyl)-3-methyl-2,3,4,9-tetrahydro-1H-pyrido[3,4-b]indole]",−72.2
11,"C[C@@H]1Cc2c([nH]c3ccccc23)[C@@H](c2c(F)cc(OCCN3CC(CO)C3)cc2F)N1CC(C)(C)F [Example 119, (1-(2-(3,5-difluoro-4-((1R,3R)-2-(2-fluoro-2-methylpropyl)-3-methyl-2,3,4,9-tetrahydro-1H-pyrido[3,4-b]indol-1-yl)phenoxy)ethyl)azetidin-3-yl)methanol]",−71.3
